Source: patent publication US8148392B2, “2-indolyl imidazo [4,5-d] phenanthroline derivatives and their use in the treatment of cancer” (Lorus Therapeutics Inc., priority 2005, dated 2012)
Entries after “also recorded” stand apart in the source; their conditions may differ.

How the values were obtained:
[1] = test system: 12 human tumour cell lines; assay: Hollow fiber assay; assay type: in vivo, athymic mice; conditions: for net cell kill: cell lines with net cell kill
From the text: For example, the in vivo activity of candidate compounds can also be tested using the Hollow Fiber Assay (Hollingshead, M., et al., (1995) Life Sciences 57:131-141; and Decker et al., Eur. J. of Cancer 40: 821-826 (2004)). In this assay, cells growing in hollow fibers (polyvinylidine fluoride, PVDF) are implanted in various body compartments of mice. A standard panel of 12 tumour cell lines can be used for the hollow fiber screening of candidate compounds which have shown activity in vitro. These cell lines may include NCI-H23, NCI-H522, MDA-MB-231, MDA-MB-435, SW-620, COLO 205, LOX-IMVI, UACC-62, OVCAR-3, OVCAR-5, U251 and SF-295. In addition, alternate lines such as those described in the above in vitro section can be used for specialized testing of compounds. The cell lines are cultivated according to standard protocols, and fibers are prepared by flushing cells into the PVDF fibers and sealing them at 2 cm intervals. The samples generated from these seals are placed into tissue culture medium and incubated at 37° C. in 5% CO2 for 24 to 48 hours prior to implantation. A total of 3 different tumour lines are prepared for each experiment so that each mouse receives 3 intraperitoneal implants (1 of each tumour line) and 3 subcutaneous implants (1 of each tumour line). On the day of implantation, samples of each tumour cell line preparation are quantitated for viable cell mass by, for example, a stable endpoint MTT assay, so that the time zero cell mass is known. Mice are treated with experimental agents starting on day 3 or 4 following fiber implantation and continuing daily for 4 days. Each agent is administered by intraperitoneal injection at 2 dose levels. The fibers are collected from the mice on the day following the fourth compound treatment and subjected to the stable endpoint MTT assay. The optical density of each sample is determined spectrophotometrically at 540 nm and the mean of each treatment group is calculated. The percent net growth for each cell line in each treatment group is calculated and compared to the percent net growth in the vehicle treated controls. A 50% or greater reduction in percent net growth in the treated samples compared to the vehicle control samples is considered a positive result. Each positive result is given a score of […] and all of the scores are totaled for a given compound. The maximum possible score for an agent is 96 (12 cell lines×2 sites×2 dose levels×2 [score]).
A candidate compound that is screened initially in the hollow fiber assay may subsequently be tested in a xenograft model if it has a combined ip+sc score of 20 or greater, a sc score of 8 or greater, or produces cell kill of any cell line at either dose level evaluated. This scoring system has been validated by DCTDC statisticians in CTEP to represent a level of detection expected to score current “standard” agents as active.
The in vivo efficacy of compounds according to Formula I was tested by determining the efficacy of compound 3 in the hollow fiber assay. This assay is described in Decker et al., Eur. J. of Cancer 40: 821-826 (2004), and was carried out by implanting 12 human tumour cell lines (Breast; MDA-MB-231, MDA-MB-435. Glioma; U251, SF-295. Ovarian; OVCAR-3, OVCAR-5. Colon; COLO-205, SW-620. Melanoma; LOX-IMVI, UACC-62 and Lung; NCI-H23, NCI-H522) into athymic mice as follows. Cell cultures were cultivated in RPMI-1640 containing 10% FBS and 2 mM glutamine. […]

p21 = p21 mRNA in HT-29 tumour xenografts, RT-PCR; assay type: in vivo, CD-1 female nude mice; conditions: HT-29 xenograft, versus vehicle
Protocol: The ability of compound 3 to modulate expression of p21 in vivo was determined using the HT-29 colon tumour xenograft model as described in Example 26. The expression of p21 mRNA was analyzed by real-time polymerase chain reaction analysis using the comparative CT method as described in Example 30.

MTF-1 = MTF-1 DNA-binding activity, EMSA, HT-29 nuclear extract; assay type: cell-based, human
Protocol: To verify the change in MTF-1 activity at earlier time of incubation, prior to the significant decrease in MTF-1 gene expression, MTF-1 nuclear translocation and DNA-binding activity was determined in nuclear extract of HT-29 cells treated with compound 3 for 4 hr, by electrophoretic mobility shift assay (EMSA) (FIG. 40B) as follows. HT-29 cells were treated with DMSO, 35 μM ZnCl2 (positive control) and 1 μM compound 3 for 4 hr. Nuclear protein was extracted and incubated with biotin-labeled MTF-1 binding oligonucleotide probes. The retarded mobility of labeled probe upon MTF-1 binding was observed as a band shift (FIG. 40B). […] In zinc-treated groups, 2 additional shift bands (open arrows) were observed (lane 3), indicating the increase in zinc-dependent MTF-1 activity. […] Excess unlabeled probes were added in lane 2, 4 and 6 to compete the labeled probes binding with MTF-1 in the nuclear extract, showing the specificity of MTF-1-binding shift bands in lane 1, 3 and 5, respectively.
HT-29 cells were treated with 35 μM ZnCl2 for 4 hr and the nuclear extract from zinc-treated cells (zinc-activated MTF-1) was treated with compound 3 in vitro and DNA-binding activity of MTF-1 to MRE sequence was assessed by electrophoretic mobility shift assay (EMSA) (Panomics, Redwood City, Calif.).
To examine inactivation of MTF-1 by compound 3 in the cells, HT-29 cells were treated with compound 3 for 1 to 4 hr and DNA-binding activity of MTF-1 in the nuclear extract was assessed by EMSA.

Cyclin E = Cyclin E protein in HT-29 cells, Western blotting; assay type: cell-based, human; conditions: HT-29, 1 μM

## Cc1[nH]c2ccccc2c1-c1nc2c3cccnc3c3ncccc3c2[nH]1 [Compound 3]
[1]; 2 dosages, 4 days treatment
  ip score: 22
  sc score: 10
[1]
  net cell kill: positive cell killing; also recorded: one or more
[1]; listed as compound 3
  net cell kill: positive cell kill
[1]; ip + sc, maximum of 96
  total score: 32
p21
  p21 expression in tumour xenografts: induced the expression of p21
MTF-1; HT-29 cells treated for 1 to 4 hr
  DNA-binding activity of MTF-1: Significant decrease in MTF-1 activity
MTF-1; HT-29 treated with 1 μM for 4 hr, versus ZnCl2 positive control
  zinc-dependent MTF-1 DNA-binding activity: zinc-dependent MTF-1 activity was not increased
MTF-1; nuclear extract of zinc-treated HT-29 cells treated in vitro
  DNA-binding activity of zinc-activated MTF-1: Inactivation of MTF-1 DNA-binding
Cyclin E
  Cyclin E expression: decreased expression of Cyclin E
